Laboratory results as given in ChEMBL document CHEMBL1201862, “PubChem BioAssay data set” (2004).
The source made the active and inactive calls.

How the values were obtained:
Estrogen receptor beta [1] = target: T1, Estrogen receptor beta (Homo sapiens, UniProt Q92731); test: ERβ–SRC-3 coactivator interaction inhibitors, confirmation, orthogonal assay, biochemical, ELISA, streptavidin-HRP readout (AID 1060)
Bcl-2-like protein 10 = target: T2, Bcl-2-like protein 10 (Homo sapiens, UniProt Q9HD36); test: displacers of TR3 peptide from Bcl-B, primary screen, selectivity assay for Bfl-1 inhibitor project, biochemical, fluorescence polarization, FITC-TR3 peptide (AID 748);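 also: fluorescence polarization from a fluorescein-labelled TR3 peptide binding purified Bcl-B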
T2 sequence (Q9HD36 whole entry): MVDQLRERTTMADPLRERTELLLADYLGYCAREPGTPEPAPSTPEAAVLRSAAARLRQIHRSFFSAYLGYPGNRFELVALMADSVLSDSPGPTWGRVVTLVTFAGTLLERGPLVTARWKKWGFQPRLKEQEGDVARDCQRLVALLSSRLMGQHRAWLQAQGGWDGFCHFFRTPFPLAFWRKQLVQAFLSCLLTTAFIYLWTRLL

Estrogen receptor = target: T3, Estrogen receptor (Homo sapiens, UniProt P03372);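 also: potency for inhibiting coactivator peptide recruitment to the receptor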
T3 sequence (P03372 whole entry): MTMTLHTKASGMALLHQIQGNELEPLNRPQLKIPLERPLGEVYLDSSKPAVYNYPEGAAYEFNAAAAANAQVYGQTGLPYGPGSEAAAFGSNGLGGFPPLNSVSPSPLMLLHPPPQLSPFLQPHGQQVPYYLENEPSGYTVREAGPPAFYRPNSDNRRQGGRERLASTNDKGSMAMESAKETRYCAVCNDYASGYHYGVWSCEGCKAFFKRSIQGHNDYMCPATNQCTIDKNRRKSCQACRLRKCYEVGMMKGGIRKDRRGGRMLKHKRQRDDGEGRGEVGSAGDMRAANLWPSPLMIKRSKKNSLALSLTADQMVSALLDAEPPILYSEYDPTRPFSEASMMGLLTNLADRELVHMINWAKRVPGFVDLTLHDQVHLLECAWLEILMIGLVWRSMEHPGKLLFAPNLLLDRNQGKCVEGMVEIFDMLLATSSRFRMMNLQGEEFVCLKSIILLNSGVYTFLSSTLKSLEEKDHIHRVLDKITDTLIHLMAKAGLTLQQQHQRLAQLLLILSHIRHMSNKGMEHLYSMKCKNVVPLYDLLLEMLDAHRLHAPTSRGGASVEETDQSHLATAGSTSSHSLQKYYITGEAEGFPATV

Estrogen receptor beta [2] = target: T1, Estrogen receptor beta
[3] = target: Voltage-dependent T-type calcium channel subunit alpha-1H (Homo sapiens, UniProt O95180); format: functional;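 also: channel activity triggered by adding a high calcium stimulation buffer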
[4] = target: Mitogen-activated protein kinase 10 (Homo sapiens, UniProt P53779); test: Dose response biochemical screening assay for inhibitors of c-Jun N-Terminal Kinase 3 (JNK3). [Related pubchem assays: 746 ]
[5] = inhibitors of firefly luciferase expression or activity, dose response, H4 neuroglioma cells, luminescence (AID 1990); format: functional, cell-based
[6] = inhibitors of SNCA 5'UTR-driven reporter translation, confirmation, H4 neuroglioma cells, luminescence (AID 1988); format: functional, cell-based
[7] = Luminescence Cell-Based Dose Response HTS to Identify Inhibitors of 5'UTR Stem-Loop Driven Prion Protein mRNA Translation in H4 Neuroglioblastoma Cells. [Related pubchem assays: 1827 (Project Summary), 1813 (Primary HTS)]; format: functional
[8] = target: Peroxisome proliferator-activated receptor gamma/Nuclear receptor coactivator 1 (Homo sapiens, UniProt P37231); test: (§1) TR-FRET dose response biochemical High Throughput Screening assay for agonists of the steroid receptor coactivator 1 (SRC-1) recruitment by the peroxisome proliferator-activated receptor gamma (PPAR gamma): non-selective agonists. [Related pubchem assays (depositor defined):AID1300, AID1808, AID504735, AID631]; format: protein assay
[9] = target: Peroxisome proliferator-activated receptor gamma/Nuclear receptor coactivator 3 (Homo sapiens, UniProt P37231); test: as §1, with “3 (SRC-3)” for “1 (SRC-1)”, “assays: 1301 (Confirmation screen.), 1048 (Primary screen.)]” for “assays (depositor defined):AID1300, AID1808, AID504735, AID631]”; format: functional
[10] = target: Peroxisome proliferator-activated receptor gamma/Nuclear receptor coactivator 2 (Homo sapiens, UniProt P37231); test: TR-FRET dose response biochemical High Throughput Screening assay for agonists of the steroid receptor coactivator 2 (SRC-2) recruitment by the peroxisome proliferator-activated receptor gamma (PPAR gamma): non-selective agonists. [Related pubchem assays: 1297, 1032 ]; format: functional
[11] = HepG2 cell cytotoxicity, dose response, cytotoxicity control for non-replicating M. tuberculosis project (AID 489018); format: functional; settings: Mycobacterium tuberculosis
Streptococcus = test: Group A Streptococcus viability loss, dose response, counter-screen for streptokinase expression inhibitor project, luminescence, BacTiterGlo (AID 1915); format: functional, organism-based;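 also: potency for reduction of bacterial viability or growth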
[12] = system: Streptococcus sp. 'group A'; test: growth inhibition of control SK(-) GAS strain, dose response, counter-screen for streptokinase expression inhibitor project, luminescence, kanamycin, BacTiterGlo, confirmation (AID 1900); format: functional, organism-based
cells = format: functional
[13] = Vero E6 cell cytotoxicity, dose response, cytotoxicity control for non-replicating M. tuberculosis project, secondary assay (AID 492998); format: functional, VeroE6; settings: Vero C1008
[14] = THP-1 cell cytotoxicity, dose response, cytotoxicity control for non-replicating M. tuberculosis project (AID 489025); format: functional
Troponin, cardiac muscle = Troponin, cardiac muscle (Homo sapiens, UniProt P19429+P45379+P63316); test: Fluorescence-based biochemical high throughput dose response assay for activators of the calcium sensitivity of cardiac Regulated Thin Filaments (RTF). [Related pubchem assays (depositor defined):AID493008, AID493018, AID504382, AID504383]; format: protein-complex assay
[15] = target: T4, E3 ubiquitin-protein ligase XIAP (Homo sapiens, UniProt P98170); test: XIAP antagonists, biochemical, IAP family, fluorescence polarization (AID 1018); format: functional
[16] = target: T4, E3 ubiquitin-protein ligase XIAP; test: Counter Screen using XIAP-Bir3 for Chemical Antagonists of Bir1/2 domains of IAP-family anti-apoptotic proteins. [Related pubchem assays (depositor defined):AID1018, AID1449, AID1514, AID1638, AID1749, AID1750, AID488957, AID488963]
[17] = Jurkat T cell cytotoxicity, dose response, cytotoxicity control for P. falciparum gametocyte viability project, luminescence (AID 1117277); format: functional, cell-based;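 also: potency reflects loss of cellular ATP meaning fewer viable cells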
[18] = P. falciparum late gametocyte killing, dose response, luminescence (AID 1117278); format: functional, cell-based;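 also: gametocytes exposed to compound for 24 hours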
[19] = target: T5, Histone-lysine N-methyltransferase NSD2 (Homo sapiens, UniProt O96028); format: biochemical
T5 sequence (O96028 whole entry): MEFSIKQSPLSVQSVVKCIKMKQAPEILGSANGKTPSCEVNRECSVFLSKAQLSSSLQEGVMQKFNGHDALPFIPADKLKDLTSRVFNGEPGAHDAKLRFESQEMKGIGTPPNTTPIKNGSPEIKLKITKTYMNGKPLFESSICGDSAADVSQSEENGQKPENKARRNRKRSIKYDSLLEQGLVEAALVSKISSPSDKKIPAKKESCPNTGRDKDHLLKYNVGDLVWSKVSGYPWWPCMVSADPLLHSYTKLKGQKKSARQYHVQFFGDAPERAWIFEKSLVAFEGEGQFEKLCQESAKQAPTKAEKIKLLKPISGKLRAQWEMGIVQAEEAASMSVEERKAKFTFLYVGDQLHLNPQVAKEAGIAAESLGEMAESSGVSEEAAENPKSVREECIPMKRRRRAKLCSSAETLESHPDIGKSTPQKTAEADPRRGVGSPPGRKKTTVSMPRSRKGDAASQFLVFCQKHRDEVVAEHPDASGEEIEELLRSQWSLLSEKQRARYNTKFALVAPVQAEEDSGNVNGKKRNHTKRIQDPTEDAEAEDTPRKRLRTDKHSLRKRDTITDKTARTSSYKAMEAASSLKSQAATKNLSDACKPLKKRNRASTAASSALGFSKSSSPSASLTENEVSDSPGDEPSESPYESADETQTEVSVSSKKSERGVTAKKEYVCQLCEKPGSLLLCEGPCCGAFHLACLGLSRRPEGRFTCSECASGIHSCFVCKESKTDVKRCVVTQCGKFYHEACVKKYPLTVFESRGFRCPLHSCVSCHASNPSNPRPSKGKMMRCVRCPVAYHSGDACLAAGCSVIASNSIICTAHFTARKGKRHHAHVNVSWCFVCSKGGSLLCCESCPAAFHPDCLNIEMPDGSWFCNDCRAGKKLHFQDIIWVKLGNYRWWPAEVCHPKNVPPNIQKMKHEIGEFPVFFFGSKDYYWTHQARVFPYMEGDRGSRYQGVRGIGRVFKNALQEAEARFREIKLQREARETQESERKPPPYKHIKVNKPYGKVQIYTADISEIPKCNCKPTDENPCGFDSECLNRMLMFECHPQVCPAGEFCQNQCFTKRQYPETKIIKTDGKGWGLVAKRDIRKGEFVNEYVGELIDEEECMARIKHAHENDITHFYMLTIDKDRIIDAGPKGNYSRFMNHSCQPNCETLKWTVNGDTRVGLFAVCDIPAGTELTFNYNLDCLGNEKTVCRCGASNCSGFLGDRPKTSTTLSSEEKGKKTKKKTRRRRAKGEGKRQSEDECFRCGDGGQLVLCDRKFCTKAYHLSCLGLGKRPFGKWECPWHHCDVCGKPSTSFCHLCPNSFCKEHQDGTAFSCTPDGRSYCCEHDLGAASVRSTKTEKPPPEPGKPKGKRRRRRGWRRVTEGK

Trypsin = Trypsin (Sus scrofa, UniProt P00761); test: porcine trypsin inhibitors, dose response, selectivity assay for Rce1 protease inhibitor project, biochemical, quenched peptide fluorescence, cherry-pick (AID 488789)
CAAX prenyl protease 2 = target: T6, CAAX prenyl protease 2 (Homo sapiens, UniProt Q9Y256); test: human Rce1 protease inhibitors, dose response, biochemical, yeast membranes, quenched-peptide fluorescence, cherry-pick (AID 588849)
T6 sequence (Q9Y256 whole entry): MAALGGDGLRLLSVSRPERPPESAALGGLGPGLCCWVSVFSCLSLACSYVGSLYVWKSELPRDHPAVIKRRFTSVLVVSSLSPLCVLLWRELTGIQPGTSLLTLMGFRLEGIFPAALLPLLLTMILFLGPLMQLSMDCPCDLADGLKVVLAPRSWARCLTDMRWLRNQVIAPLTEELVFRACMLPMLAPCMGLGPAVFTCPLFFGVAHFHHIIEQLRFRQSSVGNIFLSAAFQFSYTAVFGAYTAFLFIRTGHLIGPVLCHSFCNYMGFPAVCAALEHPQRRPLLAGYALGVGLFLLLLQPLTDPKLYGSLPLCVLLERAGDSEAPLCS

Chain of Mitogen-activated protein kinase 10 (P53779 whole entry): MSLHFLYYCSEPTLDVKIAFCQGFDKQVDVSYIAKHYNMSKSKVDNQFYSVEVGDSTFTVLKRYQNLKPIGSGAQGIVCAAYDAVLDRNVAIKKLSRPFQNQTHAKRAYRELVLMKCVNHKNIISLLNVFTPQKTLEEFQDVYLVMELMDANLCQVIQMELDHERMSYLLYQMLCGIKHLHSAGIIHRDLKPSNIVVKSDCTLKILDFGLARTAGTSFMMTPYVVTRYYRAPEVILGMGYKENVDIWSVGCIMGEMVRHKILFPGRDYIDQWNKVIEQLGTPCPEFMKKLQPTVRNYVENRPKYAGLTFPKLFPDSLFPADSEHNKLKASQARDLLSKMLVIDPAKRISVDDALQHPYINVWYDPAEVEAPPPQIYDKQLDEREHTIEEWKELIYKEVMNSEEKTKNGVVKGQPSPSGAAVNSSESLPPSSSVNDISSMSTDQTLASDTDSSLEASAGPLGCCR
T1 sequence (Q92731 whole entry): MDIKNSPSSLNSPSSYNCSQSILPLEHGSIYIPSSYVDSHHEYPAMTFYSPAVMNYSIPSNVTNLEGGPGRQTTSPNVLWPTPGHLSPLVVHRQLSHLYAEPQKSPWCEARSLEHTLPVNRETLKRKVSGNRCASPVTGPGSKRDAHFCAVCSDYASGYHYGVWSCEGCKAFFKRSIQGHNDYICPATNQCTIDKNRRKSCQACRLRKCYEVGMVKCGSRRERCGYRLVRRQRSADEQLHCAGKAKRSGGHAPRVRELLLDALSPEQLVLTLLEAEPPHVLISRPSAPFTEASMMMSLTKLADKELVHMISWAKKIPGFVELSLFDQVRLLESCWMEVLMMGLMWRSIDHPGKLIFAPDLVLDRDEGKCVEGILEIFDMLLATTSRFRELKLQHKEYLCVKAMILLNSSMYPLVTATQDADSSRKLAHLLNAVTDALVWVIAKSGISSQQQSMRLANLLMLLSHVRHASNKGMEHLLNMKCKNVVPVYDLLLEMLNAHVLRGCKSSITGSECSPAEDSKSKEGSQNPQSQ
Chain of Voltage-dependent T-type calcium channel subunit alpha-1H (O95180 whole entry): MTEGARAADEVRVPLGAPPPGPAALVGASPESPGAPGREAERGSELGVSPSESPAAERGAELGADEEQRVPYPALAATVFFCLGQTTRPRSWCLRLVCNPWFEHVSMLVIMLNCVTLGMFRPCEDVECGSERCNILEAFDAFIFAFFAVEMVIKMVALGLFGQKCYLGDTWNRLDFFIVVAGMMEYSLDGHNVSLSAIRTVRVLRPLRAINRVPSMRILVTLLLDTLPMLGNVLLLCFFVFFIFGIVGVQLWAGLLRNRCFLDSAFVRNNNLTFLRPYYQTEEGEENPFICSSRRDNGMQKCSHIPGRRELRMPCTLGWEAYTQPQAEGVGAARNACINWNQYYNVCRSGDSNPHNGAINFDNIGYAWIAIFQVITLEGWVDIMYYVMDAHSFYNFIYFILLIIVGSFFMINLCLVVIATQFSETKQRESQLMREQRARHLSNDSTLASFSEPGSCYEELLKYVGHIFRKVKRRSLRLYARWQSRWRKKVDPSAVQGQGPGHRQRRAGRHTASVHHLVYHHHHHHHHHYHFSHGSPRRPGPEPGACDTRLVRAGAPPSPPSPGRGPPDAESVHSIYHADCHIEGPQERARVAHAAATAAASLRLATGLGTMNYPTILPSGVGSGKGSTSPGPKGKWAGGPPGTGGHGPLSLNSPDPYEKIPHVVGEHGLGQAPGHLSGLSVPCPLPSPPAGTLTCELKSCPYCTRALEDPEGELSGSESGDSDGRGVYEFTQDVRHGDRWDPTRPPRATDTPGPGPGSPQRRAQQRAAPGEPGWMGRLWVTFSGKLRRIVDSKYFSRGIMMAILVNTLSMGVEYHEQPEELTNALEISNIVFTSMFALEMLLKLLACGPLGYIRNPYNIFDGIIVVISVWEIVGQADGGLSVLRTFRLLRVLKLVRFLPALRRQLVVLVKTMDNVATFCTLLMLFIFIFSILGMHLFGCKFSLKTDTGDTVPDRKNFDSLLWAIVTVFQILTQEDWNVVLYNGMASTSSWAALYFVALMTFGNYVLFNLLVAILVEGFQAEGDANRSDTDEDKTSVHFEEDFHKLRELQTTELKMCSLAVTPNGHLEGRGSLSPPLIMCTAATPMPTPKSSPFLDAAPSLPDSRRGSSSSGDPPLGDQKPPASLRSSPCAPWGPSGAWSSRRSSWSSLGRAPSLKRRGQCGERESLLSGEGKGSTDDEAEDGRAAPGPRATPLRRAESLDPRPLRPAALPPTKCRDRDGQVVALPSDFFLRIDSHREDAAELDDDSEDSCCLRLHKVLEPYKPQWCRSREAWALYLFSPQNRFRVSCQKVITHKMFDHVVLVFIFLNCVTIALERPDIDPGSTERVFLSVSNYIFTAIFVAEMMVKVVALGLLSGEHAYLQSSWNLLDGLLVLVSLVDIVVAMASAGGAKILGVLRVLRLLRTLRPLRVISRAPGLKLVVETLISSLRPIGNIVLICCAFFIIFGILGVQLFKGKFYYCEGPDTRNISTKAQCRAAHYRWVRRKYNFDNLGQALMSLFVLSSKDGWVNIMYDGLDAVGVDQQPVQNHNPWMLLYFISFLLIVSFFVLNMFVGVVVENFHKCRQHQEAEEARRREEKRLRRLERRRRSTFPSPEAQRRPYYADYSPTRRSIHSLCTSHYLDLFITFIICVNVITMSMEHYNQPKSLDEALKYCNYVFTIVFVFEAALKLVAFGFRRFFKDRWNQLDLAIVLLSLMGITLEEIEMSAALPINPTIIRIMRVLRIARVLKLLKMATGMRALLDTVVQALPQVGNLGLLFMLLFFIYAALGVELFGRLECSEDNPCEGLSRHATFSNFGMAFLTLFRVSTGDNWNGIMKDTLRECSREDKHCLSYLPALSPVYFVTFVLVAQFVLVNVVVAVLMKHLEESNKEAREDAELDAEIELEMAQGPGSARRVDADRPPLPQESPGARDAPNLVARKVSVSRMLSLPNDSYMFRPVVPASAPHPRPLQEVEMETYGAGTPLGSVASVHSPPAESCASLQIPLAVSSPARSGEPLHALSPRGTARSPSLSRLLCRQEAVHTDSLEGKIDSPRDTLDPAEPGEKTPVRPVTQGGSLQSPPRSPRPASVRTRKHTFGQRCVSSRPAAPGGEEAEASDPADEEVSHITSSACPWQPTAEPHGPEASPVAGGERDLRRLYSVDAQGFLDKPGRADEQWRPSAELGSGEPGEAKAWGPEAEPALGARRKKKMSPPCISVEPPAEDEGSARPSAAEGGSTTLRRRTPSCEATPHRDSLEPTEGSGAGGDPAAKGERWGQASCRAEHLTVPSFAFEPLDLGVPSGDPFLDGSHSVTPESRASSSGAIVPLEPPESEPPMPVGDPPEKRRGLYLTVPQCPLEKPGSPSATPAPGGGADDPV
T4 sequence (P98170 whole entry): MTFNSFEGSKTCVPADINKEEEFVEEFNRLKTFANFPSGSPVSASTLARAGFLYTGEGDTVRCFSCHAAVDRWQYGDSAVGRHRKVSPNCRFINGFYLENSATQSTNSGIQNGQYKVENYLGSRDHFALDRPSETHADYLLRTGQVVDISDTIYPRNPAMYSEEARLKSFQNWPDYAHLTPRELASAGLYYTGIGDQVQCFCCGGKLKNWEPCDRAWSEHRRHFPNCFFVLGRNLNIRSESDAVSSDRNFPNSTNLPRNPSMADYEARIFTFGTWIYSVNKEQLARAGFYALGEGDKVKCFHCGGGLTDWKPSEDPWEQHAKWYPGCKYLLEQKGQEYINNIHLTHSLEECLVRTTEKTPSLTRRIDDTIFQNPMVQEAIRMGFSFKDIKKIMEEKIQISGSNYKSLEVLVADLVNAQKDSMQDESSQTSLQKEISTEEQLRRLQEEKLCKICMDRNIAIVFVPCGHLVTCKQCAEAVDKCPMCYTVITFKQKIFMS
Chain of Trypsin (P00761 whole entry): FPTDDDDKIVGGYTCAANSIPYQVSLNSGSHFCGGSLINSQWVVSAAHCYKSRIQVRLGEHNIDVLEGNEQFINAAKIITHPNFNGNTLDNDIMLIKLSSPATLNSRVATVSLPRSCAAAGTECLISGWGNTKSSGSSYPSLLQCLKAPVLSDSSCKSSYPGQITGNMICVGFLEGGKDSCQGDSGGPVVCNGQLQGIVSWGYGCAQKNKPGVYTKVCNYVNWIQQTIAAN

For `CC(C)CN(C(=O)COC(=O)c1cc2c(s1)CCC2)C1CCS(=O)(=O)C1` (stereo not given), the IC50 (Estrogen receptor beta [1]) was 1.94 µM (not active), the IC50 (Bcl-2-like protein 10) was 26.6 µM (active) and the IC50 (Estrogen receptor) was 2.95 µM (active). For the same compound, the IC50 (Estrogen receptor beta [2]) was 1.91 µM (active).
With `CCCN(CCC)S(=O)(=O)c1ccc(NS(=O)(=O)c2ccc(F)cc2)cc1` the EC50 [3] was 3.07 µM (active).
In the case of `CCOC(=O)CSc1nc2c(sc3ccccc32)c(=O)n1CCCN1CCOCC1`, the IC50 [4] is reported as 40 µM (not active).
For `COc1ccc(Cn2c(=O)[nH]c3cc(C(=O)NCc4ccc5c(c4)OCO5)ccc3c2=O)cc1`, the EC50 [5] was > 120 µM (not active), the EC50 [6] was 11 µM (active) and the IC50 (Estrogen receptor) was 18.9 µM (active). The EC50 [7] was > 120 µM (not active).
For `CCn1c(=O)cc(SCC(=O)N2CCN(c3ccccc3F)CC2)c2ccccc21`, the EC50 [8] was > 79.4 µM (inactive), the EC50 [9] was > 79.4 µM (not active) and the EC50 [10] was > 79.4 µM (not active).
With `Cc1ccc(-c2noc(CSc3nnc(Cc4cccs4)n3-c3ccccc3)n2)cc1` the EC50 [3] was 3.56 µM (active).
In the case of `O=c1[nH]c(=S)c2c(n1-c1ccccc1)CCC2`, the IC50 [4] is reported as 76 µM (not active).
In the case of `COC(=O)c1sc(-c2ccccc2)cc1NC(=O)C1CC1`, the EC50 [8] is reported as > 79.4 µM (inactive), the EC50 [9] is reported as > 79.4 µM (not active) and the EC50 [10] is reported as > 79.4 µM (not active).
With `CCOc1ccc(-c2nnc(NC(=O)c3ccc(OCC(C)C)c(OC)c3)o2)cc1` the CC50 [11] was > 20 µM (active), the EC50 (Streptococcus) was 1.76 µM (active) and the EC50 [12] was 0.354 µM (active). The EC50 [3] was 11.3 µM (active), the IC50 (cells) was 36.7 µM (active) and the CC50 [13] was 10.1 µM (active). For the same compound, the CC50 [14] was 13.8 µM (active).
In the case of `CCN(CC(=O)Nc1ccccc1C(F)(F)F)C(=O)c1ccc(-n2nc(C)c(CCC(=O)OC)c2C)cc1`, the EC50 (Troponin, cardiac muscle) is reported as > 71.5 µM (inactive).
In the case of `Cc1ccc(NC(=O)CN2C(=O)S/C(=C\C(=O)Nc3ccc(Cl)cc3)C2=O)cc1`, the IC50 [15] is reported as > 100 µM (not active) and the IC50 [16] is reported as > 100 µM (inactive).
In the case of `Cc1cc(=O)oc2cc(OCc3ccc(C(=O)N4CCN(c5ccc([N+](=O)[O-])cc5)CC4)cc3)ccc12`, the IC50 [15] is reported as > 100 µM (not active) and the IC50 [16] is reported as > 100 µM (inactive).
For `CSC1=N/C(=C\c2ccc(Br)o2)C(=O)S1`, the IC50 (Estrogen receptor beta [1]) was < 0.023 µM (not active), the IC50 (Estrogen receptor) was 22.1 µM (active) and the IC50 (Estrogen receptor beta [2]) was 8.58 µM (active).
In the case of `Cc1ccc(S(=O)(=O)NC(=O)c2cc(C)n(CCCn3ccnc3)c2C)cc1`, the IC50 (Bcl-2-like protein 10) is reported as 74 µM (inactive).
For `CCCCCNc1nc(NCCCO)c(C#N)c2c1CN(C)CC2`, the IC50 [17] was > 83.3 µM (inactive), the IC50 [18] was > 109 µM (inactive) and the AC50 [19] was > 20 µM (inactive).
With `COC(=O)c1c(NC(=O)Cc2cccs2)sc(C)c1C` the IC50 [4] was 34.8 µM (not active).
In the case of `CC1CCN(c2oc(-c3ccc(F)cc3)nc2C#N)CC1`, the AC50 (Trypsin) is reported as 3.18 µM (active) and the AC50 (CAAX prenyl protease 2) is reported as 9.46 µM (active).
